# Measured values: patent publication US20260158102A1, “CYCLIC PEPTIDE DERIVATIVE COMPOSITION FOR TREATING OR PREVENTING NEUROPATHIC PAIN AND/OR INFLAMMATORY PAIN” (DKS Co. Ltd., priority 2022, published 2026)
# Experiment: Body weight measurement in rat STZ-induced diabetes model
# Format: in vivo
# Settings: mean ± SE, in g (unit assumed)
# Protocol: Compound 9 (50 mg/mL) was diluted with water for injection to obtain a 1 mg/mL administration specimen. For the specimens to be administered at 0.1 mg/mL and 0.01 mg/mL, the specimen to be administered at 1 mg/mL was diluted stepwise with water for injection. Each administration specimen was divided into PP disposable tubes every day and stored in a storehouse (freezer: MDF-MU339H-PJ, PHC Corporation) under the condition of freezing (−30° C. to −20° C., measured value: −26.4 to −24.5° C.). Preparation was performed on the day before the start of administration.
# Water for injection was added to and dissolved in Pregabalin taken out from the capsule to obtain 2 mg/mL. It was prepared before use.
# • Animal species: rat (SPF) • Strain: Crl: CD (SD) • Date of animal acquisition, gender, age in weeks, number of animals acquired, and weight range after 1 day of acquisition • First and second courses: Apr. 6, 2022, male, 7 weeks old, 35 animals, 217 to 237 g • Third and fourth courses: Apr. 13, 2022, male, 7 weeks old, 35 animals, 216 to 235 g • Source: […].
# • Dose volume: calculated at 2 mL/kg based on the body weight on the day of administration. • Number of times of administration: once • Day of administration: 7 days before the day of starting administration of the test substance.
# • Dose volume: calculated at 1 mL/kg based on the body weight on the day of administration. • Number of times of administration: 9 times • Interval of administration: once every 3 days (evaluation was performed on the day after administration) • Day of starting administration: day 8 of STZ administration (day of STZ administration is counted as day 1).
# • Dose volume: calculated at 10 mL/kg based on the body weight on the day of administration. • Number of times of administration: Administration was performed once on the day of evaluation of neuropathic pain, twice in total, and on the other days of administration, a vehicle for a control substance (water for injection) was orally administered.
# • Measurement was performed every day after the day of STZ administration.
# The mean and standard error of each group were calculated for the 50% withdrawal threshold, body weight, and blood glucose level.
# The body weight was an integer.
# No significant difference test of body weight and blood glucose levels was performed.
smiles,measurement,setting,value
CC[C@@]1(C)Oc2cc(ccc2O)C[C@H](NC)C(=O)N[C@@H](C(C)C)C(=O)N[C@@H]1C(=O)N[C@@H](CC(=O)O)C(=O)O [Compound 9],Body weight,"0.1 mg/kg iv, day 10 of STZ administration",295 ± 6
same,Body weight,"0.1 mg/kg iv, day 11 of STZ administration",298 ± 6
same,Body weight,"0.1 mg/kg iv, day 12 of STZ administration",300 ± 4
same,Body weight,"0.1 mg/kg iv, day 13 of STZ administration",303 ± 6
same,Body weight,"0.1 mg/kg iv, day 14 of STZ administration",305 ± 5
same,Body weight,"0.1 mg/kg iv, day 15 of STZ administration",300 ± 6
same,Body weight,"0.1 mg/kg iv, day 16 of STZ administration",302 ± 7
same,Body weight,"0.1 mg/kg iv, day 17 of STZ administration",307 ± 7
same,Body weight,"0.1 mg/kg iv, day 18 of STZ administration",305 ± 7
same,Body weight,"0.1 mg/kg iv, day 19 of STZ administration",310 ± 8
same,Body weight,"0.1 mg/kg iv, day 20 of STZ administration",312 ± 8
same,Body weight,"0.1 mg/kg iv, day 21 of STZ administration",307 ± 7
same,Body weight,"0.1 mg/kg iv, day 22 of STZ administration",311 ± 7
same,Body weight,"0.1 mg/kg iv, day 23 of STZ administration",314 ± 8
same,Body weight,"0.1 mg/kg iv, day 24 of STZ administration",312 ± 7
same,Body weight,"0.1 mg/kg iv, day 25 of STZ administration",312 ± 7
same,Body weight,"0.1 mg/kg iv, day 26 of STZ administration",312 ± 7
same,Body weight,"0.1 mg/kg iv, day 27 of STZ administration",310 ± 8
same,Body weight,"0.1 mg/kg iv, day 28 of STZ administration",315 ± 8
same,Body weight,"0.1 mg/kg iv, day 29 of STZ administration",311 ± 7
same,Body weight,"0.1 mg/kg iv, day 30 of STZ administration",313 ± 8
same,Body weight,"0.1 mg/kg iv, day 31 of STZ administration",310 ± 8
same,Body weight,"0.1 mg/kg iv, day 32 of STZ administration",312 ± 8
same,Body weight,"0.1 mg/kg iv, day 33 of STZ administration",308 ± 8
same,Body weight,"1 mg/kg iv, day 1 of STZ administration",293 ± 5
same,Body weight,"1 mg/kg iv, day 2 of STZ administration",282 ± 6
same,Body weight,"1 mg/kg iv, day 3 of STZ administration",277 ± 4
same,Body weight,"1 mg/kg iv, day 4 of STZ administration",279 ± 4
same,Body weight,"1 mg/kg iv, day 5 of STZ administration",284 ± 5
same,Body weight,"1 mg/kg iv, day 6 of STZ administration",286 ± 5
same,Body weight,"1 mg/kg iv, day 7 of STZ administration",291 ± 5
same,Body weight,"1 mg/kg iv, day 8 of STZ administration",290 ± 5
same,Body weight,"1 mg/kg iv, day 9 of STZ administration",291 ± 5
same,Body weight,"1 mg/kg iv, day 10 of STZ administration",294 ± 6
same,Body weight,"1 mg/kg iv, day 11 of STZ administration",300 ± 7
same,Body weight,"1 mg/kg iv, day 12 of STZ administration",299 ± 6
same,Body weight,"1 mg/kg iv, day 13 of STZ administration",303 ± 6
same,Body weight,"1 mg/kg iv, day 14 of STZ administration",302 ± 6
same,Body weight,"1 mg/kg iv, day 15 of STZ administration",303 ± 7
same,Body weight,"1 mg/kg iv, day 16 of STZ administration",303 ± 8
same,Body weight,"1 mg/kg iv, day 17 of STZ administration",305 ± 8
same,Body weight,"1 mg/kg iv, day 18 of STZ administration",306 ± 7
same,Body weight,"1 mg/kg iv, day 19 of STZ administration",307 ± 7
same,Body weight,"1 mg/kg iv, day 20 of STZ administration",305 ± 9
same,Body weight,"1 mg/kg iv, day 21 of STZ administration",304 ± 8
same,Body weight,"1 mg/kg iv, day 22 of STZ administration",309 ± 8
same,Body weight,"1 mg/kg iv, day 23 of STZ administration",309 ± 9
same,Body weight,"1 mg/kg iv, day 24 of STZ administration",311 ± 9
same,Body weight,"1 mg/kg iv, day 25 of STZ administration",309 ± 9
same,Body weight,"1 mg/kg iv, day 26 of STZ administration",311 ± 9
same,Body weight,"1 mg/kg iv, day 27 of STZ administration",308 ± 9
same,Body weight,"1 mg/kg iv, day 28 of STZ administration",309 ± 9
same,Body weight,"1 mg/kg iv, day 29 of STZ administration",310 ± 9
same,Body weight,"1 mg/kg iv, day 30 of STZ administration",308 ± 10
same,Body weight,"1 mg/kg iv, day 31 of STZ administration",306 ± 9
same,Body weight,"1 mg/kg iv, day 32 of STZ administration",309 ± 10
same,Body weight,"1 mg/kg iv, day 33 of STZ administration",308 ± 10
